Assays:
[1] = system: endogenous purinergic receptors; assay: Aequorin assay, endogenous receptors in AEQ cells; assay type: cell-based
Text: To enable isolation of the signaling of the D2R from endogenous G proteins, and to control each of the components of the signaling complex, Flp-In 1-Rex-293 cells were engineered to stably express aequorin (AEQ cells) (see Example 1). Aequorin produces luminescence in a calcium-dependent manner in the presence of the substrate coelenterazine (23, 24), and it has been used to create a sensitive luminescence readout for GPCR-mediated PLC activation (25). In these cells, endogenous muscarinic or purinergic receptors signaled robustly via endogenous Gq, resulting in strong agonist-induced (ACH and ATP, respectively) luminescence signals (FIG. 7A).

[2] = system: WT D2R coexpressed with D2/D4-Gqi5; assay: Aequorin functional complementation assay, WT D2R as protomer A with D2/D4-Gqi5 as protomer B; assay type: cell-based, human; conditions: L745,870 1 μM; agonist quinpirole; n=9
Text: (§1) The signals were further normalized according to Flag tagged D2R expression level. To normalize for different levels of surface expression levels of the Flag-D2R-Gqi5 mutant constructs, the Emax at each expression level (FIG. 12F) was plotted as a function of different levels of expression of Flag-tagged wt D2R-Gqi5, the expression of which was controlled by varying the time after tetracycline induction (FIG. 12A). The level of Myc-D2R remained essentially unchanged (FIG. 12B). The standard curve was fit to a 1 site rectangular hyperbola using nonlinear regression in GraphPad Prism 4.0 (GraphPad Software Inc., La Jolla, Calif.) (FIG. 12G). The luminescence response of the various Flag-D2R-Gqi5 constructs was normalized using this standard curve to account for the effects of different expression levels, with activation of 1 defined as that observed after 12 hours of tetracycline induction of WT D2R-Gqi5. The Flag detection was approximately 5-fold more sensitive than that of Myc; thus, the excess of Myc-tagged protomer A, which cannot signal on its own, ensures that normalization based on surface expression of the Flag-tagged Gqi5-fused protomer B accurately reflects the productive signaling entities, each of which must contain a protomer A and a protomer B.

[3] = target: T1, D2R coexpressed with D2-Gqi5 (Homo sapiens, UniProt P14416); assay: Aequorin functional complementation assay, D2R coexpressed with D2R-Gqi5; assay type: cell-based; conditions: pertussis toxin 100 ng/ml 16-24 hours
T1 construct: signal peptide (N); expressed in transfected cells; host or cells: Flp-in T-rex 293 cells stably expressing aequorin
T1 sequence (P14416 with tags, fused parts or gaps isoform P14416-2): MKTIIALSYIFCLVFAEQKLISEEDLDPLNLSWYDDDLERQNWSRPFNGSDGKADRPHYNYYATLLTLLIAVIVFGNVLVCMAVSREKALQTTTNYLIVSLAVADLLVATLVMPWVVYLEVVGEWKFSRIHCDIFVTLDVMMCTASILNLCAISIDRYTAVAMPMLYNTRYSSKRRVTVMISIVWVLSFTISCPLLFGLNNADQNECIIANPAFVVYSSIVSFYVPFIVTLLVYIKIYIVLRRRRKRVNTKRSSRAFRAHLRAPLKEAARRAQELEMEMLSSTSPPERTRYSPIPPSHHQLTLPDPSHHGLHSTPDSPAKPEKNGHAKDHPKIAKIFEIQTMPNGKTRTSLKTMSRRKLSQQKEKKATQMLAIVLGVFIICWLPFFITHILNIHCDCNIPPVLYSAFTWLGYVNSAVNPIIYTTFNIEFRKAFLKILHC
T1 sequence (P14416 with tags, fused parts or gaps isoform P14416-2): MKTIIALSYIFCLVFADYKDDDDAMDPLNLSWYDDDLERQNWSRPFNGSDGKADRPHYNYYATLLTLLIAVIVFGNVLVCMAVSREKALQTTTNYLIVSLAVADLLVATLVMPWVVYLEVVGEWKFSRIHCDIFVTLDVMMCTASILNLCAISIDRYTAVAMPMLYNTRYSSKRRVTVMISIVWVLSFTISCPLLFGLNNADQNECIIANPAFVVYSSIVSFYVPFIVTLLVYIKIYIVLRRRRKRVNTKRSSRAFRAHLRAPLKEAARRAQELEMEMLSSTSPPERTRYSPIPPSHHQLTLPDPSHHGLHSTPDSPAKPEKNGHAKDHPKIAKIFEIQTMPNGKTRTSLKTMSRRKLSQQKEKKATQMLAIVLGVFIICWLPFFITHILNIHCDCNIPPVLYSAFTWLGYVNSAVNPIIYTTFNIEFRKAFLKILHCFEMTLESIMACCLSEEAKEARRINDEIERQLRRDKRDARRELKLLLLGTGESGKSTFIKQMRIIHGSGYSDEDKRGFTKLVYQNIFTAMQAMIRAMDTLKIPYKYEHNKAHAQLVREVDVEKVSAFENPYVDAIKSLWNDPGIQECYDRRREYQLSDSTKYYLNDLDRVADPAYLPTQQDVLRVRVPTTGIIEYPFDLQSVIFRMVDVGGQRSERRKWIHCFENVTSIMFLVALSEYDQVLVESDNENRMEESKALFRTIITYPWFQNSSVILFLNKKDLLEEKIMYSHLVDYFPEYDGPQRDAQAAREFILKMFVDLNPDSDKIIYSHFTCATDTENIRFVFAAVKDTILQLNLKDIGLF
Text: as §1, with “B. […]” for “B.”

[4] = target: T2, D2R coexpressed with free Gqi5 (Homo sapiens, UniProt P14416); assay type: cell-based; conditions: pertussis toxin 100 ng/ml 16-24 hours
T2 construct: signal peptide (N); expressed in transfected cells; host or cells: Flp-in T-rex 293 cells stably expressing aequorin
T2 sequence (P14416 with tags, fused parts or gaps isoform P14416-2): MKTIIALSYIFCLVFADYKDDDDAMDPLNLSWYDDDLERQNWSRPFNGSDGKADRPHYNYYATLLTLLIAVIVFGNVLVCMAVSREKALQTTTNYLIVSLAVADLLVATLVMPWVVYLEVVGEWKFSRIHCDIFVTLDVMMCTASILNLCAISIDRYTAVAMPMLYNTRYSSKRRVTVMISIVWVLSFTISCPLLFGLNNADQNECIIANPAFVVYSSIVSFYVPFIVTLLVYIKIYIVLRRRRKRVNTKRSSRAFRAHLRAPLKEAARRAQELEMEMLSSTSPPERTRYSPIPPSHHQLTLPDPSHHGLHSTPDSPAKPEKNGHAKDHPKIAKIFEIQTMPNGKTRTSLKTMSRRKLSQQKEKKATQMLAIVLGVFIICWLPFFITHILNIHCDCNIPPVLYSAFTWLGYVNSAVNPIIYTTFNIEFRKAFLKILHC

[5] = target: T3, SSTR5 coexpressed with D2R-Gqi5 (Homo sapiens, UniProt P14416+P35346); assay type: cell-based
T3 construct: signal peptide (N); expressed in transfected cells; host or cells: AEQ cells (Flp-in T-rex 293 with aequorin)
T3 sequence (P35346 whole entry): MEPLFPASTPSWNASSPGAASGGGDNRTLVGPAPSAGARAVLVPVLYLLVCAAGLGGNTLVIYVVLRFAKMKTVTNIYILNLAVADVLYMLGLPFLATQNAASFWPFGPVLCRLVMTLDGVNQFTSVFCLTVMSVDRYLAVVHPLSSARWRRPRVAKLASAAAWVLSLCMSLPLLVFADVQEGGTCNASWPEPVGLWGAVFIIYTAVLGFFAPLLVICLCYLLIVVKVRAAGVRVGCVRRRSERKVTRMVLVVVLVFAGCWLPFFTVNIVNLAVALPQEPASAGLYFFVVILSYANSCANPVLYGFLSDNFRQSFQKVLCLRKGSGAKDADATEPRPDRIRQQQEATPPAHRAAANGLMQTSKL

[6] = target: T4, SSTR5 coexpressed with D114A-Gqi5 (Homo sapiens, UniProt P35346); assay type: cell-based
T4 construct: signal peptide (N); expressed in transfected cells; host or cells: AEQ cells (Flp-in T-rex 293 with aequorin)
T4 sequence (P35346 whole entry, stated change not applied): as the sequence (P35346 whole entry) above
T4 sequence (P14416 with tags, fused parts or gaps isoform P14416-2 D114A partner): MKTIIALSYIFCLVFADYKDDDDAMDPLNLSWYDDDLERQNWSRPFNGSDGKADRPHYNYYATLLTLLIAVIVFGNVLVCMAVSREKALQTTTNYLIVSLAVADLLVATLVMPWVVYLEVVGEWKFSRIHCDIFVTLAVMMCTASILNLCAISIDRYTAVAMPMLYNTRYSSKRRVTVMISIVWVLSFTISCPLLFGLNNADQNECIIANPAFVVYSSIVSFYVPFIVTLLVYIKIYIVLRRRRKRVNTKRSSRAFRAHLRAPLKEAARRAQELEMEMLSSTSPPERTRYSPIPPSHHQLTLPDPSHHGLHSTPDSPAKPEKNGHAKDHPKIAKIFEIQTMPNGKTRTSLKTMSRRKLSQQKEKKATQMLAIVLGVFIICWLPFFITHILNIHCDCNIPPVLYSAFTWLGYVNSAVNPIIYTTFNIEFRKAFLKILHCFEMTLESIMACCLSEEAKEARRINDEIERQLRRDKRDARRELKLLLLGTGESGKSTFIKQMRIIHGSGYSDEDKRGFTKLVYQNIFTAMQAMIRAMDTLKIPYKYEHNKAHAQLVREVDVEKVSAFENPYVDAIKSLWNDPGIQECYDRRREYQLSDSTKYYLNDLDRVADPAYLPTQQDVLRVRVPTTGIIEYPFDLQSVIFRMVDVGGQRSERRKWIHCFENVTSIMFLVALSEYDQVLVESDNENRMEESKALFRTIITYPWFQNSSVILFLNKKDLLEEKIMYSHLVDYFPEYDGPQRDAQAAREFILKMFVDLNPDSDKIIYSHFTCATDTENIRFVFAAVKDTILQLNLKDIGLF

Nc1ncnc2c1ncn2[C@@H]1O[C@H](COP(=O)(O)OP(=O)(O)OP(=O)(O)O)[C@@H](O)[C@H]1O [ATP]
agonist-induced luminescence signal via endogenous Gq [1]: strong

Cl.Cl.Cl.Clc1ccc(N2CCN(Cc3c[nH]c4ncccc34)CC2)cc1 [L745,870, 3-(4-[4-Chlorophenyl]piperazin-1-yl)-methyl-1H-pyrrolo[2,3-b]pyridine trihydrochloride]
maximal activation, % of that observed for D2R coexpressed with WT D2R-Gqi5 [2]: 156.7±7.3%

pertussis toxin
effect of pertussis toxin treatment on activation [3]: lack of effect
effect of PTX on increase in luminescence [4]: unaffected

CCN1CCCC1CNC(=O)c1cc(S(N)(=O)=O)ccc1OC (centres unmarked) [sulpiride]
enhancement of potency of somatostatin by sulpiride relative to quinpirole ([5]; D2R inverse agonist sulpiride versus agonist quinpirole): about 6 fold
effect on SSTR5 activation (luminescence readout) ([5]; coadministration of 1 μM with somatostatin): enhanced
shift in the SST curve ([5]; in presence of compound, data not shown): full shift
effect on SSTR5 activation (luminescence readout) [6]: without effect
